According to ChEMBL document CHEMBL5029155, “Design, Synthesis, and Biological Evaluation of Stable Colchicine-Binding Site Tubulin Inhibitors 6-Aryl-2-benzoyl-pyridines as Potential Anticancer Agents” (J Med Chem, 2021):

How the values were obtained:
MDA-MB-453 = test: Antiproliferative activity against human MDA-MB-453 cells assessed as cell growth inhibition incubated for 72 hrs by MTS assay; format: functional, cell-based; settings: MDA-MB-453, 72 h
[1] = Metabolic stability in mouse liver microsomes assessed as half life in presence of NADPH regenerating system by UPLC-MS analysis; format: ADME, Microsome; settings: for t1/2: microsomes
[2] = Metabolic stability in mouse liver microsomes assessed as intrinsic clearance in presence of NADPH regenerating system by UPLC-MS analysis; format: ADME, Microsome; settings: read-out: CLH
[3] = Metabolic stability in human liver microsomes assessed as half life in presence of NADPH regenerating system by UPLC-MS analysis; format: ADME, Microsome; settings: for t1/2: microsomes
A-375 = test: Antiproliferative activity against human A-375 cells assessed as cell growth inhibition incubated for 72 hrs by MTS assay; format: functional, cell-based; settings: A-375, 72 h
MDA-MB-231 = test: Antiproliferative activity against human MDA-MB-231 cells assessed as cell growth inhibition incubated for 72 hrs by MTS assay; format: functional, cell-based; settings: MDA-MB-231, 72 h
[4] = Metabolic stability in human liver microsomes assessed as intrinsic clearance in presence of NADPH regenerating system by UPLC-MS analysis; format: ADME, Microsome; settings: read-out: CLH
SK-BR-3 = test: Antiproliferative activity against human SK-BR-3 cells assessed as cell growth inhibition incubated for 72 hrs by MTS assay; format: functional, cell-based; settings: SK-BR-3, 72 h
RPMI-7951 = test: Antiproliferative activity against human RPMI-7951 cells assessed as cell growth inhibition incubated for 72 hrs by MTS assay; format: functional, cell-based; settings: RPMI-7951, 72 h
M14 [5] = test: Antiproliferative activity against human M14 cells assessed as cell growth inhibition incubated for 72 hrs by MTS assay; format: functional, cell-based; settings: M14, 72 h
[6] = Induction of cell cycle arrest in human A375/TxR cells assessed as accumulation at G2/M phase at 10 nM measured for 24 hrs by PI staining based flow cytometry analysis
M14 [7] = test: Cytotoxicity against paclitaxel resistant human M14 cells measured after 72 hrs […]; format: functional, cell-based; settings: M14, 72 h
M14 [8] = test: Cytotoxicity against human M14 cells measured after 72 hrs […]; format: functional, cell-based; settings: M14, 72 h
[9] = Induction of apoptosis in human A375/TxR cells assessed as apoptotic cells at 10 nM measured for 24 hrs by annexin VFITC /PI staining based analysis (reference value: […]); format: functional

IC50 (MDA-MB-453) [nM] | t1/2 [1] [min] | CLint scaled [2] [mL/min/kg] | t1/2 [3] [min] | IC50 (A-375) [nM] | IC50 (MDA-MB-231) [nM] | CLint scaled [4] [mL/min/kg] | IC50 (SK-BR-3) [nM] | half-life ([1]; liver microsomes) [min] | half-life ([3]; liver microsomes) [min] | SMILES | IC50 (RPMI-7951) [nM] | IC50 (M14 [5]) [nM] | Activity [6] [%] | IC50 (M14 [7]) [nM] | IC50 (M14 [8]) [nM] | Activity [9] [%]
1.1 | – | 57.3 | 10.8 | 2 | 3.3 | 116 | 4.1 | – | – | COc1cc(C(=O)c2cccc(-c3ccc(C)c(O)c3)n2)cc(OC)c1OC | 2.8 | 2 | 60 | – | – | –
9.7 | 4.2 | 824 | 43.2 | 4.3 | 16 | 28.8 | 5.5 | – | – | COc1cc(C(=O)c2cc(C)cc(-c3ccc(C)cc3)n2)cc(OC)c1OC | 6.4 | 4.4 | – | – | – | –
3.9 | 3 | 1050 | 4.2 | 2.4 | 5.3 | 317 | 4.2 | – | – | COc1cc(C(=O)c2cccc(-c3ccc(C)cc3)n2)cc(OC)c1OC | 3.5 | 3.1 | – | – | – | –
2.5 | 12.6 | 273 | 9.6 | 3.7 | 2.3 | 133 | 1.9 | – | – | COc1cc(C(=O)c2nc(-c3ccc(C)cc3)ccc2F)cc(OC)c1OC | 3.4 | 2.6 | – | – | – | –
4 | 12.6 | 271 | 5.4 | 3 | 4.7 | 240 | 3.8 | – | – | COc1cc(C(=O)c2cccc(-c3ccc(C(F)F)cc3)n2)cc(OC)c1OC | 2.8 | 4.7 | – | – | – | –
5.5 | – | – | – | 8.8 | 5.5 | – | 3.5 | – | – | COc1cc(C(=O)c2cc(C)cc(-c3ccc(C)c(N)c3)n2)cc(OC)c1OC | 6.3 | 5.9 | – | – | – | –
89.7 | – | – | – | 80.9 | 45 | – | 52.3 | – | – | COc1cc(C(=O)c2cc(F)cc(-c3ccc(C(F)F)cc3)c2)cc(OC)c1OC | 40.8 | 56.3 | – | – | – | –
5 | > 240 | 13 | 27.6 | 7.9 | 11.1 | 45 | 4.5 | – | – | COc1cc(C(=O)c2cc(OC)c(OC)c(OC)c2)nc(-c2ccc(C)cc2)c1 | 6.8 | 7.7 | – | – | – | –
4.2 | 90 | 38.2 | 33 | 2.6 | 4.3 | 38.1 | 2.4 | – | – | COc1cc(C(=O)c2nc(-c3ccc(C(F)F)cc3)ccc2F)cc(OC)c1OC | 2.1 | 3.2 | – | – | – | –
6.7 | 42.6 | 65.8 | 20.4 | 2.5 | 4.8 | – | 7.1 | – | – | COc1cc(C(=O)c2cncc(-c3ccc(C)cc3)n2)cc(OC)c1OC | 2.2 | 1.7 | – | – | – | –
5.9 | – | 818 | – | 5 | 5.3 | 83.6 | 5.5 | 4.2 | 15 | COc1cc(C(=O)c2cccc(-c3ccc4c(c3)CCN4)n2)cc(OC)c1OC | 5.9 | 5.6 | – | – | – | –

Second part, the compound before the results:

SMILES | IC50 (MDA-MB-453) [nM] | t1/2 [1] [min] | CLint scaled [2] [mL/min/kg] | t1/2 [3] [min] | IC50 (A-375) [nM] | IC50 (MDA-MB-231) [nM] | CLint scaled [4] [mL/min/kg] | IC50 (SK-BR-3) [nM] | half-life ([1]; liver microsomes) [min] | half-life ([3]; liver microsomes) [min] | IC50 (RPMI-7951) [nM] | IC50 (M14 [5]) [nM] | Activity [6] [%] | IC50 (M14 [7]) [nM] | IC50 (M14 [8]) [nM] | Activity [9] [%]
COc1cc(C(=O)c2c[nH]c(-c3ccc(C)c(O)c3)n2)cc(OC)c1OC | 23.2 | 84.6 | 40.6 | 142.2 | 41.2 | 24.3 | 8.8 | 57.6 | – | – | 78.4 | 32.4 | – | – | – | –
COc1cc(C(=O)c2cccc(-c3ccc(N(C)C)cc3)n2)cc(OC)c1OC | 33.7 | – | – | – | 53.8 | 42.7 | – | 54.5 | – | – | 44 | 63.5 | – | – | – | –
COc1cc2c(c(OC)c1OC)-c1ccc(OC)c(=O)cc1[C@@H](NC(C)=O)CC2 [COLCHICINE] | – | – | – | – | – | – | – | – | – | – | – | – | – | > 1000 | – | –
COc1cc(C(=O)c2nc(-c3ccc(C)c(O)c3)[nH]c2Br)cc(OC)c1OC | 68.1 | – | – | – | 85 | 70.9 | – | 119 | – | – | 133 | 76.3 | – | – | – | –
COc1cc(C(=O)c2ccnc(-c3ccc(C)c(O)c3)n2)cc(OC)c1OC | 2.8 | 78.6 | 43.8 | 9 | 6.8 | 15.1 | 142 | 12 | – | – | 7.2 | 5.4 | – | – | – | –
CCc1c(OC)cc(C(=O)c2cccc(-c3ccc(C)c(O)c3)n2)cc1OC | 8.7 | 211.8 | 16.2 | 54.6 | 15.1 | 37.4 | 22.9 | 10.1 | – | – | 13.9 | 24.8 | – | – | – | –
COc1cc(-c2n[nH]c3ccc(-c4ccc(C)c(O)c4)nc23)cc(OC)c1OC | 54.9 | 167.4 | 20.5 | 205.2 | 21.1 | 22.3 | 6.1 | 65.6 | – | – | 22.9 | 18.5 | – | – | – | –
COc1cc(C(=O)c2cccc(-c3ccc(C)c(NC(C)=O)c3)n2)cc(OC)c1OC | 19.3 | – | – | – | 28.8 | 33.4 | – | 15.2 | – | – | 21.2 | 12.6 | – | – | – | –
COc1cc(C(=O)c2cc(OC)c(OC)c(OC)c2)nc(-c2ccc(C)c(O)c2)c1 | 14.7 | 45 | 76.7 | 42.6 | 22.2 | 17.6 | 29.2 | 16.9 | – | – | 17.2 | 17.5 | – | – | – | –
CC(=O)O[C@H]1C(=O)[C@@]2(C)[C@H]([C@H](OC(=O)c3ccccc3)[C@]3(O)C[C@H](OC(=O)[C@H](O)[C@@H](NC(=O)c4ccccc4)c4ccccc4)C(C)=C1C3(C)C)[C@]1(OC(C)=O)CO[C@@H]1C[C@@H]2O [PACLITAXEL] | – | – | – | – | – | – | – | – | – | – | – | – | – | 186 | 0.5 | 11.8
COc1cc(C(=O)c2ccnc(-c3c[nH]c4ccccc34)n2)cc(OC)c1OC | 14.2 | – | – | – | 36.1 | 31.6 | – | 17.1 | – | – | 29.7 | 29.1 | – | – | – | –
COc1cc(C(=O)c2cncc(-c3c[nH]c4ccccc34)n2)cc(OC)c1OC | 13.2 | – | – | – | 16.7 | 12.4 | – | 35 | – | – | 14.4 | 19.2 | – | – | – | –
COc1cc(-n2ccc3ccc(-c4ccc(C)cc4)nc32)cc(OC)c1OC | 139 | – | – | – | 174 | 515 | – | 82.9 | – | – | 205 | 76.5 | – | – | – | –
COc1cc(C(=O)c2cccc(-c3ccc(C)cc3)n2)cc2c1OCCO2 | 3.2 | 1.8 | 1900 | 7.2 | 3.6 | 5.3 | 172 | 3.2 | – | – | 3.1 | 4.5 | – | – | – | –
COc1cc(C(=O)c2cncc(-c3ccc(C)c(O)c3)n2)cc(OC)c1OC | 4 | 119.4 | 28.7 | 46.8 | 5.9 | 8 | 26.6 | 26.7 | – | – | 5.2 | 5.2 | – | – | – | –
COc1cc(C(=O)c2nc(-c3ccc(C)c(O)c3)[nH]c2C)cc(OC)c1OC | 28.1 | – | – | – | 52.3 | 112 | – | 25.6 | – | – | 56 | 46.6 | – | – | – | –
COc1cc(C(=O)c2cncc(-c3cccc4[nH]ncc34)n2)cc(OC)c1OC | 51.5 | – | – | – | 20.8 | 38 | – | 46.1 | – | – | 23.8 | 21.9 | – | – | – | –
COCCOc1c(OC)cc(C(=O)c2cccc(-c3ccc(C)cc3)n2)cc1OC | 2.1 | 8.4 | 397 | 9 | 3.7 | 6.6 | 136 | 4.2 | – | – | 5 | 2.4 | – | – | – | –
